Where two headings read alike, the source gives them in different places.
Legend:
CYP1A2 = molecular target: T1, CYP1A2 (Homo sapiens, UniProt P05177); assay: Inhibitory activity on CYP isoenzymes at a single concentration (liver microsomes); assay type: in vitro ADME; settings: pH 7.4, probe phenacetin, Final compound concentration: 10 µM, substrate Phenacetin, read-out: Inhibition rate (%) CYP1A2
T1 construct: from tissue; host or cells: liver microsomes
T1 sequence (P05177 1-516): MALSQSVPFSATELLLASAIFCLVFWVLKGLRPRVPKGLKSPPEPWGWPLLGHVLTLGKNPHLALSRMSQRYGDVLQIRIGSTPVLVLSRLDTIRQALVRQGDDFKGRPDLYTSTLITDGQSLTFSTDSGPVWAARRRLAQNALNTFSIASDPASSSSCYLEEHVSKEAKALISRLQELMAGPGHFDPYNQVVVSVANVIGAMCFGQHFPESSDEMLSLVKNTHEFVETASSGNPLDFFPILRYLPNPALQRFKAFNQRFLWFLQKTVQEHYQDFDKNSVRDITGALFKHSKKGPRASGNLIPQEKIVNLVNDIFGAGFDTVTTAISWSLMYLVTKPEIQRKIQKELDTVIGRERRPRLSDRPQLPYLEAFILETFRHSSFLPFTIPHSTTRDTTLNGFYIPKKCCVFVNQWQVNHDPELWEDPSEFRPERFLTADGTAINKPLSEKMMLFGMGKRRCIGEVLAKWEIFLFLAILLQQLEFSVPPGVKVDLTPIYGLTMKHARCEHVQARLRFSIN
Protocol: (§1) • 1. […] Experimental instrument and reagents: [table] […] The mixture was added with HCl to adjust the pH to 7.4 and brought to a final volume of 1000 mL with water. […] [table] [table] Liver microsomes were thawed in a water bath at 37°C prior to use. […] A 5 mM NADPH working solution was prepared in phosphate-buffered saline. […] 300 µL of the supernatant was aliquoted for further LC-MS/MS analysis. […] Table 3: Inhibitory activity of compounds on CYP isoenzymes*

CYP2C9 = molecular target: T2, CYP2C9 (Homo sapiens, UniProt P11712); assay: as above; assay type: in vitro ADME; settings: pH 7.4, probe diclofenac, Final compound concentration: 10 µM, substrate Diclofenac, read-out: Inhibition rate (%) CYP2C9
T2 construct: Liver microsomes were thawed in a water bath at 37°C prior to use; from tissue; host or cells: liver microsomes
T2 sequence (P11712 whole entry): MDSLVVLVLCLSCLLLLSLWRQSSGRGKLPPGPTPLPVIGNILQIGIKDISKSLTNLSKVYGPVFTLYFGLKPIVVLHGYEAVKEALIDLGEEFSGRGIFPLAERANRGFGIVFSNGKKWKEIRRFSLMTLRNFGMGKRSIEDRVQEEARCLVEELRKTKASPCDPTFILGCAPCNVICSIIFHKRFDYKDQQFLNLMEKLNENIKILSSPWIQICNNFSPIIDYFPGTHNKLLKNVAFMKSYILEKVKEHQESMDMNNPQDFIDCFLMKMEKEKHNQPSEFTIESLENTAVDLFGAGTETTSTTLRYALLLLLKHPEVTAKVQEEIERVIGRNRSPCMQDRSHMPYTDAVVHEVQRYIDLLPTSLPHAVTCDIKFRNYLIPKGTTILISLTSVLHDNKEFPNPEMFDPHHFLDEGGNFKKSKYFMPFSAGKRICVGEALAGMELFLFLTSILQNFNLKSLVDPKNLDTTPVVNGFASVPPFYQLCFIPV
Protocol: as §1

CYP2D6 = molecular target: T3, CYP2D6 (Homo sapiens, UniProt P10635); assay: as above; assay type: in vitro ADME; settings: pH 7.4, probe dextromethorphan, Final compound concentration: 10 µM, substrate Dextromethorphan, read-out: Inhibition rate (%) CYP2D6
T3 construct: Liver microsomes were thawed in a water bath at 37°C prior to use; from tissue; host or cells: liver microsomes
T3 sequence (P10635 whole entry): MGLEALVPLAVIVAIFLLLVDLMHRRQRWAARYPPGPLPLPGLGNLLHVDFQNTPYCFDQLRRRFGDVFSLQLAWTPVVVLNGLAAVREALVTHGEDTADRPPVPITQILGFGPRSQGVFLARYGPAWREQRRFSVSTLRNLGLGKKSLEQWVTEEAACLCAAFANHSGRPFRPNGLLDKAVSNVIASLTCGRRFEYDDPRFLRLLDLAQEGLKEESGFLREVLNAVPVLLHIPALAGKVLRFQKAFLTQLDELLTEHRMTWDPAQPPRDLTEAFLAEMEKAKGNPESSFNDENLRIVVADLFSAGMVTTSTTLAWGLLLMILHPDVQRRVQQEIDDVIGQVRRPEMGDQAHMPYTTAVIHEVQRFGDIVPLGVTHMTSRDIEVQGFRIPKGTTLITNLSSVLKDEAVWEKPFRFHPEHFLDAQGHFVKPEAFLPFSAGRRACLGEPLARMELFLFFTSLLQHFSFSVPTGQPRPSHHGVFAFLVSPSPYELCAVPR
Protocol: as §1

CYP2C19 = molecular target: T4, CYP2C19 (Homo sapiens, UniProt P33261); assay: as above; assay type: in vitro ADME; settings: pH 7.4, probe mephenytoin, Final compound concentration: 10 µM, substrate Mephenytoin, read-out: Inhibition rate (%) CYP2C19
T4 construct: Liver microsomes were thawed in a water bath at 37°C prior to use; from tissue; host or cells: liver microsomes
T4 sequence (P33261 whole entry): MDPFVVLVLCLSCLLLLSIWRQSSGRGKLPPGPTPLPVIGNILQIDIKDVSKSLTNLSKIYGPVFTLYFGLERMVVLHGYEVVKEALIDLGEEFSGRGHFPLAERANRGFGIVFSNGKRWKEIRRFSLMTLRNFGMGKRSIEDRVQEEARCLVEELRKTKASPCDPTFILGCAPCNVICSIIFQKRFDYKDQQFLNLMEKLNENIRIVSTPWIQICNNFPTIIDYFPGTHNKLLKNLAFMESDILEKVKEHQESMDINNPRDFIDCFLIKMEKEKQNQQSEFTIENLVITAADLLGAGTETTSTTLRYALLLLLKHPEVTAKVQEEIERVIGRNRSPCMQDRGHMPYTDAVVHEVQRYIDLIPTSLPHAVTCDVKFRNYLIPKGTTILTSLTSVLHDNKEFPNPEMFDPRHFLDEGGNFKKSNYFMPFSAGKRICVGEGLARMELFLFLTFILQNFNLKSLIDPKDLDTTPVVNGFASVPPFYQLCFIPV
Protocol: as §1

CYP3A4/5 [1] = assay: Multi-concentration inhibitory activity curve of CYP3A4/5 enzymes (liver microsomes); assay type: in vitro ADME; settings: human liver microsomes
Protocol: • 1. Experimental purpose: To determine the concentration inhibitory activity curve of compounds on CYP3A4/5 enzymes. • 2. Experimental instrument and materials:
(§2) The mixture was added with HCl to adjust the pH to 7.4 and brought to a final volume of 1000 mL with water.
Liver microsomes were thawed in a water bath at 37°C prior to use. […] A 5 mM NADPH working solution was prepared in phosphate-buffered saline. […] The above stock solution was diluted with acetonitrile (4-fold dilution, 6 non-zero concentrations).
(§3) 300 µL of the supernatant was aliquoted for further LC-MS/MS analysis.
The half-maximal inhibitory concentration (IC50) was calculated using Graph Pad Prism. Table 3: Inhibitory activity of compounds on CYP3A4/5 enzymes

p53 Y220C mutant = molecular target: T5, p53 Y220C mutant (Homo sapiens, UniProt P04637, Y220C); assay: HTRF assay: compounds promoting the binding of p53 Y220C mutant with DNA; assay type: biochemical; settings: HTRF/FRET; His-tagged p53 Y220C (94-312) with biotin-labeled DNA; incubated overnight
T5 construct: Recombinant His-tagged p53 Y220C (94-312) used for HTRF assays was expressed in E. coli; made in house; host or cells: E. coli
Protocol: Homogeneous time-resolved fluorescence (HTRF) assay was used to measure the reactivation effect of compounds on the p53 Y220C mutant. Recombinant His-tagged p53 Y220C (94-312) used for HTRF assays was expressed in E. coli and purified to 90% purity using a Ni-NTA column. The biotin-labeled DNA used for HTRF assays was synthesized by Pharmaron Inc, with the specific sequence of 5'-[…]-3'.
The binding of recombinant His-tagged p53 Y220C protein with biotin-labeled DNA was measured using fluorescence resonance energy transfer (FRET). For FRET assays, the binding between the p53 mutant and the DNA sequences was measured by detecting the fluorescence of the interaction between Eu-conjugated anti-His antibody (Cisbio, 61HI2KLA) and d2-conjugated streptavidin (Cisbio, 610SADLF) bound to a biotin-labeled DNA molecule. Compounds were prepared as 2 mM stock solutions and serially diluted 1:3 in DMSO to obtain 10 concentrations. Each compound at 200× working concentration was sequentially diluted to 4× working concentration. 4 µL of compound solution was transferred row-by-row to a 384-well assay plate using Echo, with 2 replicates per column. Subsequently, 4 µL of p53 solution was added to the assay plate, followed by 4 µL of biotinylated DNA solution, and then 4 µL of assay solution (His-Eu antibody and streptavidin-d2) was added to each well. The assay plate was incubated overnight in the dark. Fluorescence was read on a BMG microplate reader (BMG LABTECH).
The ratio for each well was calculated (ratio_665 nm/615 nm - ratio_background). The activity (%) was calculated as follows: C = (Ave_Ac−Ave_Ba)/(Ave_Dc−Ave_Bd) [formula] R data = (A−Ave_Ba−C×D)/(D−Ave_Bd) × (Ave_Dc−Ave_Bd) [formula] Activity (%) = R data/Ave_VC × 100. [formula] • A: fluorescence intensity of the sample at 665 nm; • D: fluorescence intensity of the sample at 615 nm; • Ba: fluorescence intensity of the plate background at 665 nm; • Bd: fluorescence intensity of the plate background at 615 nm; • Dc: fluorescence intensity of HIS-Eu background at 615 nm; • Ac: fluorescence intensity of streptavidin-d2 background at 665 nm; • VC: DMSO treatment group.
SC150 was calculated using GraphPad 8.0 to fit the logarithm of activity (%) versus compound concentration to a nonlinear regression (dose response-variable slope). Table 1: Activity of compounds promoting the binding of p53 Y220C mutant with DNA

NUGC-3 cells = assay: Anti-proliferation effect on NUGC-3 cells (Cell Counting Kit-8); assay type: cell-based; settings: Homo sapiens, NUGC-3, 120 h, 5 days of treatment
Protocol: Cell line NUGC-3 (JCRB, JCRB0822) was cultured in RPMI 1640 medium (Invitrogen, 11875-085) supplemented with 10% (v/v) fetal bovine serum (BI, 04-002-1A), according to the standard instructions of the American Type Culture Collection. The cell line was authenticated by short tandem repeat profiling.
In the proliferation assay, 1000 NUGC-3 cells were seeded in a 96-well flat clear bottom, TC-treated plate (Corning, 3903) in 200 µL of medium per well, and allowed to recover overnight in culture medium. Compounds were added with increasing concentration, with DMSO treatment serving as a […]. After 5 days of treatment, the plate was equilibrated to room temperature for 30 minutes, and the number of living cells was measured by the addition of the Cell Counting Kit-8 reagent (MCE, HY-K0301). Absorbance was measured on an EnSpire microplate reader (PerkinElmer). The relative viability of each group was presented as the percentage change relative to the […] group and then fit to a four-parameter logit non-linear curve using the program XLFit (IDBS). Table 2: Anti-proliferation activity of compounds on NUGC-3 cells

hERG potassium channel = molecular target: T6, hERG potassium channel (Homo sapiens, UniProt Q12809); assay: Manual patch-clamp test of the inhibitory activity on hERG potassium channel; assay type: cell-based; settings: HEK293 cell line stably expressing the hERG ion channel, five concentrations 0.37 to 30 µM, n = 2
T6 construct: host or cells: HEK293
T6 sequence (Q12809 whole entry): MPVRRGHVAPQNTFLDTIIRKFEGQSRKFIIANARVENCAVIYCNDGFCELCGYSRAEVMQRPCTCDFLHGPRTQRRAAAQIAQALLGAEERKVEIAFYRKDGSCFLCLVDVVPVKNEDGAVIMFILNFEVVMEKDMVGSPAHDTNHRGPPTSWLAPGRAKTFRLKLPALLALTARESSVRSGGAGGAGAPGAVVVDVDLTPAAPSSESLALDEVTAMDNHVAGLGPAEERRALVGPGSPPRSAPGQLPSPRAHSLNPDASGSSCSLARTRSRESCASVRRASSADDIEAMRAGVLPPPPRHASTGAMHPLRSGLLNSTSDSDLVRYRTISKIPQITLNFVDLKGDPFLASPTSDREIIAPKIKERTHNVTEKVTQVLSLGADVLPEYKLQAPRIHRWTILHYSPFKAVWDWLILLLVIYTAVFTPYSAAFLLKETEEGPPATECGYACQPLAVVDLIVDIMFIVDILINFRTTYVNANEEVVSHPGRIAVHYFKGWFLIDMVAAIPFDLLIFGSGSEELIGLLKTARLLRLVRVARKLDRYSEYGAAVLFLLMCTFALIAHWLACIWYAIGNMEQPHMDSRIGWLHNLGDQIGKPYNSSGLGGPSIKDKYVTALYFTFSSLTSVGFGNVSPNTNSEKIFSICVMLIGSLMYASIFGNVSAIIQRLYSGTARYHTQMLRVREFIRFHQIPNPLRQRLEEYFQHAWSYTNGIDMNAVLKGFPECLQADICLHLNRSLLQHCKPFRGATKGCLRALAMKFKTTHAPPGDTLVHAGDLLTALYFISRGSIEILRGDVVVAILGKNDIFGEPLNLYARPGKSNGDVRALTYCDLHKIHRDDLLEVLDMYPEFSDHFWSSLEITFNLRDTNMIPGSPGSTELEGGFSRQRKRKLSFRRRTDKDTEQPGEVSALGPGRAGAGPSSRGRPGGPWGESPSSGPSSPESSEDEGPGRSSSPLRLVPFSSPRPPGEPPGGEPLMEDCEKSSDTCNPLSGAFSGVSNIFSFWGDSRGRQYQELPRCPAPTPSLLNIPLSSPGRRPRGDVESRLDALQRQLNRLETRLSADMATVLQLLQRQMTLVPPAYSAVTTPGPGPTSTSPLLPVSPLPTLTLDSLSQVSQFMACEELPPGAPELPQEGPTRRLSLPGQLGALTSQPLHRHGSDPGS
Protocol: This experiment was conducted to evaluate the effect of compounds in five concentrations on hERG channel current, obtaining a dose-effect curve and calculating the IC50.
Cell line and cell culture: HEK293 cell line stably expressing the hERG ion channel (Cat. No.: K1236) was purchased from Invitrogen. The cell line was cultured in medium containing 85% DMEM, 10% dialyzed fetal bovine serum, 0.1 mM non-essential amino acid solution, 100 U/mL penicillin-streptomycin solution, 25 mM HEPES, 5 µg/mL blasticidin, and 400 µg/mL geneticin. When the cell density grew to 40% to 80% of the bottom area of the culture dish, the cells were digested with trypsin and passaged three times per week. Prior to the experiment, the cells were cultured at a density of 5 × 10^5 cells per 3.5 cm culture dish, induced with 1 µg/mL doxycycline for 48 hours, followed by digestion, and seeded onto glass slides for subsequent manual patch-clamp experiments.
Solution preparation: Extracellular fluid (in mM): 132 sodium chloride, 4 potassium chloride, 3 calcium chloride, 0.5 magnesium chloride, 11.1 glucose, and 10 HEPES (pH adjusted to 7.35 with sodium hydroxide). Intracellular fluid (in mM): 10 EGTA, 10 HEPES, 10 potassium chloride, 10 sodium chloride, and 110 potassium fluoride (pH adjusted to 7.2 with potassium hydroxide). Osmolality of the solutions was controlled between 280 and 300 mOsmol/kg. The solutions were filtered and stored at 4°C prior to use.
Preparation of test compound solutions: Following the standard operating procedures, test compounds were dissolved in DMSO and prepared into a stock solution with a final concentration of 10 mM. The stock solution was serially diluted 1:3 in DMSO as the solvent to obtain three intermediate solutions with concentrations of 3.33, 1.11, and 0.37 mM. Prior to the experiment, the test compound intermediate solutions were further diluted 1:1000 with extracellular fluid to prepare a series of working solutions. […]

CYP3A4/5 [2] = assay: Inhibitory activity on CYP isoenzymes at a single concentration (liver microsomes); assay type: in vitro ADME; settings: Final compound concentration: 10 µM, human liver microsomes
Protocol: • 1. […] Experimental instrument and reagents:
as §2
Liver microsomes were thawed in a water bath at 37°C prior to use. […] A 5 mM NADPH working solution was prepared in phosphate-buffered saline.
as §3
Table 3: Inhibitory activity of compounds on CYP isoenzymes*

[3] = pH 7.4, probe midazolam, midazolam as substrate
[4] = pH 7.4, probe testosterone, testosterone as substrate
[5] = pH 7.4, probe midazolam, substrate Midazolam, read-out: Inhibition rate (%) CYP3A4/5 (Midazolam)
[6] = pH 7.4, probe testosterone, substrate Testosterone, read-out: Inhibition rate (%) CYP3A4/5 (Testosterone)

Question: What does the source list for `[2H]C([2H])([2H])Oc1nc(C(=O)O)ccc1NCC#Cc1cc2c(N[C@@H]3CCN(C)C[C@@H]3F)cccn2c1CC(F)(F)F` [Cpd-1, 5-((3-(8-(((3S,4R)-3-Fluoro-1-methylpiperidin-4-yl)amino)-3-(2,2,2-trifluoroethyl)indolizin-2-yl)prop-2-yn-1-yl)amino)-6-(methoxy-d3)picolinic acid]?
Answer: inhibition at 10 min, 10 µM (CYP1A2): 6.3%; inhibition at 10 min, 10 µM (CYP2C9): < 0%; inhibition at 10 min, 10 µM (CYP2D6): 2.6%; inhibition at 10 min, 10 µM (CYP2C19): 5.5%; IC50 at 10 min (CYP3A4/5 [1]; [3]): > 50 µM; IC50 at 10 min (CYP3A4/5 [1]; [4]): > 50 µM; SC150 (p53 Y220C mutant): 0.4 nM; IC50 (NUGC-3 cells): 100 nM; IC50 (hERG potassium channel): > 30 µM; inhibition at 10 min, 10 µM (CYP3A4/5 [2]; [5]): 3.4%; inhibition at 10 min, 10 µM (CYP3A4/5 [2]; [6]): < 0%

Question: With `COc1nc(C(=O)O)ccc1NCC#Cc1cc2c(N[C@@H]3CCN(C)C[C@@H]3F)cccn2c1CC(F)(F)F` [Cpd-2, 5-((3-(8-(((3S,4R)-3-Fluoro-1-methylpiperidin-4-yl)amino)-3-(2,2,2-trifluoroethyl)indolizin-2-yl)prop-2-yn-1-yl)amino)-6-methoxypicolinic acid] as the compound, how does the inhibition at 10 min, 10 µM (CYP1A2) read?
Answer: 1.2%

Question: What about the inhibition at 10 min, 10 µM (CYP2C9) of the same compound?
Answer: < 0%

Question: And the inhibition at 10 min, 10 µM (CYP2D6)?
Answer: 0.73%

Question: And the inhibition at 10 min, 10 µM (CYP2C19)?
Answer: 1.9%

Question: And the IC50 at 10 min (CYP3A4/5 [1]; [3])?
Answer: > 50 µM

Question: What about the IC50 at 10 min (CYP3A4/5 [1]; [4]) of the same compound?
Answer: > 50 µM

Question: And the SC150 (p53 Y220C mutant)?
Answer: 0.5 nM

Question: And the IC50 (NUGC-3 cells)?
Answer: 120 nM

Question: And the IC50 (hERG potassium channel)?
Answer: > 30 µM

Question: What about the inhibition at 10 min, 10 µM (CYP3A4/5 [2]; [5]) of the same compound?
Answer: < 0%

Question: And the inhibition at 10 min, 10 µM (CYP3A4/5 [2]; [6])?
Answer: 1.7%

Question: Which inhibition at 10 min, 10 µM (CYP1A2) does the source give for `CNC(=O)c1ccc(NCC#Cc2cc3c(N[C@@H]4CCN(C)C[C@@H]4F)cccc3n2CC(F)(F)F)c(OC)c1` [Cpd-A] here?
Answer: 12%

Question: And the inhibition at 10 min, 10 µM (CYP2C9)?
Answer: 38%

Question: What about the inhibition at 10 min, 10 µM (CYP2D6) of the same compound?
Answer: 5.5%

Question: And the inhibition at 10 min, 10 µM (CYP2C19)?
Answer: 42%

Question: And the IC50 at 10 min (CYP3A4/5 [1]; [3])?
Answer: 2.3 µM

Question: And the IC50 at 10 min (CYP3A4/5 [1]; [4])?
Answer: 0.89 µM

Question: And the SC150 (p53 Y220C mutant)?
Answer: 10 nM

Question: What about the IC50 (NUGC-3 cells) of the same compound?
Answer: 780 nM

Question: What about the IC50 (hERG potassium channel) of the same compound?
Answer: 19 µM

Question: And the inhibition at 10 min, 10 µM (CYP3A4/5 [2]; [5])?
Answer: 83%

Question: `COc1cc(S(C)(=O)=O)ccc1NCC#Cc1nc2c(N[C@@H]3CCN(C)C[C@@H]3F)cccn2c1CC(F)(F)F` [Cpd-B] was tested. Which inhibition at 10 min, 10 µM (CYP1A2) did it give?
Answer: 0.56%

Question: What about the inhibition at 10 min, 10 µM (CYP2C9) of the same compound?
Answer: 21%

Question: And the inhibition at 10 min, 10 µM (CYP2D6)?
Answer: 3.6%

Question: And the inhibition at 10 min, 10 µM (CYP2C19)?
Answer: 31%

Question: And the SC150 (p53 Y220C mutant)?
Answer: 15 nM

Question: And the IC50 (NUGC-3 cells)?
Answer: 360 nM

Question: And the inhibition at 10 min, 10 µM (CYP3A4/5 [2]; [5])?
Answer: 61%

Question: And the inhibition at 10 min, 10 µM (CYP3A4/5 [2]; [6])?
Answer: 75%

Question: Which results are given for `CNC(=O)c1ccc(NCC#Cc2cc3c(N[C@@H]4CCN(C)C[C@@H]4F)cccn3c2CC(F)(F)F)c(OC)c1` [Cpd-C, 4-((3-(8-(((3S,4R)-3-Fluoro-1-methylpiperidin-4-yl)amino)-3-(2,2,2-trifluoroethyl)indolizin-2-yl)prop-2-yn-1-yl)amino)-3-methoxy-N-methylbenzamide]?
Answer: inhibition at 10 min, 10 µM (CYP1A2): 18%; inhibition at 10 min, 10 µM (CYP2C9): 43%; inhibition at 10 min, 10 µM (CYP2D6): 9.5%; inhibition at 10 min, 10 µM (CYP2C19): 67%; IC50 at 10 min (CYP3A4/5 [1]; [3]): 3.8 µM; SC150 (p53 Y220C mutant): 4.6 nM; IC50 (NUGC-3 cells): 230 nM; inhibition at 10 min, 10 µM (CYP3A4/5 [2]; [5]): 79%
